One assay addresses T1, recombinant WT HIV-1 RT (Human immunodeficiency virus type 1 group M subtype B, UniProt P03367).
T1 construct: The p66/p51 HIV-1 RT heterodimer engineered with a N-terminal histidine tag; His tag (histidine tag) (N); made in house; host or cells: Escherichia coli strain M15 (vector pRT6H-PR)
The assay is described as follows: biochemical. Conditions: for IC50: RT Inhibition—IC50 ± SEM, WT, WT RT DDDP activity, PicoGreen or 33P radiolabeled assay, value not marked as PicoGreen, n ≥ 2; for Ligand efficiency (LE): binding to WT RT, LE = −1.4(logIC50)/N. As for the experimental part:
(§1) The inhibitory activity of all compounds was evaluated in vitro in assays that measure the DNA-dependent DNA polymerase (DDDP) activity of HIV-1 RT. Compounds were tested against recombinant WT and drug-resistant HIV-1 RT mutants (K103N, Y181C or K103N/Y181C). […] The IC50 value of nevirapine was determined in parallel to control for the performance of the assay. […] These RT mutations either reduce the rate of entry of NNRTIs to the binding pocket (K103N) or remove aromatic interactions that favor binding (Y181C). Initially, compound IC50 values were determined in an assay that quantifies DDDP activity mediated by HIV-1 RT using a radiolabeled ^33PdTTP substrate and more recently using a nonradioactive PicoGreen-based spectrophotometric assay.
(§2) Recombinant HIV-1 RT: The p66/p51 HIV-1 RT heterodimer engineered with a N-terminal histidine tag was expressed from the pRT6H-PR vector (provided by Nicolas Sluis-Cremer) which is based on pRT6H-PROT [37], except that the RT coding region is derived from the infectious molecular clone xxLAI [38]. This xxLAI clone contains the HIV-1LAI backbone and is engineered with silent mutations introducing Xma I and Xba I sites in the RT coding region at nucleotide positions 40–45 and 1470 to 1475, respectively. pRT6H-PR expressing the NNRTI drug-resistant mutations K103N, Y181C and K103N/Y181C were generated by subcloning Xma I/Xba I fragments in xxLAI harboring the desired NNRTI mutations (Giacobbi NS and Sluis-Cremer 2017 AAC) into the corresponding restriction sites in the RT coding region of p6HRT-PR. RT was expressed in Escherichia coli strain M15 and purified using Ni-NTA chromatography as previously described. RT concentrations were determined spectrophotometrically at 280 nm using an extinction coefficient (e280) of 260, 450 M^−1 cm^−1.
(§3) Nevirapine was included in assays as a positive control for inhibiting RT polymerase activity. The DDDP assay was performed by first adding 25 ng of HIV-1 RT to test compound in 96-well plates followed by initiating RT polymerase activity by adding 200 ng of activated calf thymus (ACT) DNA (Sigma Aldrich), 0.2 µCi ^33P-α-dTTP (Perkin Elmer), 50 mM Tris-HCl pH 7.8 50 mM KCl, […], 50 µM dNTP mix (Bioline), 0.1 mg/mL bovine serum albumin (New England Biolabs), 0.01% IGEPAL (Sigma) and 1 mM dithiothreitol. Reactions contained 2.5% dimethyl sulfoxide (DMSO). Following incubation at 37 °C for 10 min, samples from duplicate wells were applied to Whatman DE81 ion-exchange paper (GE Healthcare); dried membranes were washed in 2X saline-sodium citrate (SSC) buffer; and incorporated counts were quantified using an FLP-2000 phosphorimager (Fujifilm) or Typhoon Trio Phosphorimager (GE Healthcare) as published. Dose–response curves were generated using PRISM GraphPad version 8 by plotting the log transformed drug concentrations against percentage inhibition of DDDP activity compared to the no drug control using non-linear regression analysis.
(§4) Non-radioactive DDDP Assay: DDDP assays were also performed using a PicoGreen based spectrophotometric assay to detect double-stranded DNA synthesized by recombinant HIV-1 RT [15]. Assays were performed as described for the […] DDDP assay except that instead of ACT, the reaction contained 40 nM of a template/primer comprising a 200 nt DNA template (5′-[…] […]-3′) annealed to a 18 nucleotide DNA primer (5′-[…]-3′), 50 mM Tris-HCl pH 7.8, 50 mM KCl, 10 mM MgCl2 and 50 µM dNTP mix.

Another assay has as its target T2, HIV-1 RT K103N mutant (Human immunodeficiency virus type 1 group M subtype B, UniProt P03367, K702N).
T2 construct: The p66/p51 HIV-1 RT heterodimer engineered with a N-terminal histidine tag; His tag (histidine tag) (N); made in house; host or cells: Escherichia coli strain M15 (vector pRT6H-PR)
The assay is described as follows: DDDP activity assay, K103N RT mutant. It counts as biochemical. To be noted: PicoGreen or 33P radiolabeled assay, n ≥ 2, read-out: RT Inhibition—IC50 ± SEM, K103N. Here is the method: as §1
Recombinant HIV-1 RT: The p66/p51 HIV-1 RT heterodimer engineered with a N-terminal histidine tag was expressed from the pRT6H-PR vector (provided by Nicolas Sluis-Cremer) which is based on pRT6H-PROT [37], except that the RT coding region is derived from the infectious molecular clone xxLAI [38]. […] RT concentrations were determined spectrophotometrically at 280 nm using an extinction coefficient (e280) of 260, 450 M^−1 cm^−1. […]

For the next assay, the target named is T3, HIV-1 RT Y181C mutant (Human immunodeficiency virus type 1 group M subtype B, UniProt P03367, Y780C).
T3 construct: The p66/p51 HIV-1 RT heterodimer engineered with a N-terminal histidine tag; His tag (histidine tag) (N); made in house; host or cells: Escherichia coli strain M15 (vector pRT6H-PR)
Briefly: DDDP activity assay, Y181C RT mutant. To be noted: PicoGreen or 33P radiolabeled assay, n ≥ 2, read-out: RT Inhibition—IC50 ± SEM, Y181C. The format is biochemical. Here is the method:
as §1
Recombinant HIV-1 RT: The p66/p51 HIV-1 RT heterodimer engineered with a N-terminal histidine tag was expressed from the pRT6H-PR vector (provided by Nicolas Sluis-Cremer) which is based on pRT6H-PROT [37], except that the RT coding region is derived from the infectious molecular clone xxLAI [38]. […] RT concentrations were determined spectrophotometrically at 280 nm using an extinction coefficient (e280) of 260, 450 M^−1 cm^−1.
Nevirapine was included in assays as a positive control for inhibiting RT polymerase activity. […] Following incubation at 37 °C for 10 min, samples from duplicate wells were applied to Whatman DE81 ion-exchange paper (GE Healthcare); dried membranes were washed in 2X saline-sodium citrate (SSC) buffer; and incorporated counts were quantified using an FLP-2000 phosphorimager (Fujifilm) or Typhoon Trio Phosphorimager (GE Healthcare) as published. […]

For another assay, the target named is T4, His-tagged HIV-1 RT WT (Human immunodeficiency virus type 1 group M subtype B, UniProt P03367).
T4 construct: The p66/p51 HIV-1 RT heterodimer engineered with a N-terminal histidine tag; His tag (histidine tag) (N); made in house; host or cells: Escherichia coli strain M15 (vector pRT6H-PR)
Briefly: Surface plasmon resonance, WT RT. It counts as binding. Here is the method:
(§5) Compound binding to recombinant HIV-1 RT was measured by surface plasmon resonance (SPR). SPR is an optical biosensor detection method that involves passing an analyte (often a fragment) in a buffer solution over a gold surface chip with an immobilized protein (RT enzyme) and detecting the change in plasmon resonance angle which is dependent on the refractive index of the medium near the surface. As compounds bind to the target protein, the refractive index changes proportionally to the extent of binding. This can then be used to measure the association and dissociation kinetics of binding as well as the compound’s affinity for binding.
(§6) SPR assays were performed on a Biacore S200 (GE Healthcare). His-tagged RT (WT, K103N, Y181C or K103N/Y181C) was immobilized on the surface of a Biacore compatible NIHC 1500M (Xantec) chip according to manufacturer’s instructions. Following 3 injections 300 s each of 0.5 M EDTA, the chip surface was activated with a 120 s injection of 5 mM NiCl2 followed by a 2100 s injection of 130 nM RT. The final immobilization level of RT was typically 14,000–27,000 RU. SPR experiments were carried out at 25 °C using a flow rate of 50 µL/min in running buffer. The running buffer was 1.053 × (HBS pH 7.4 + 50 µM EDTA + 0.005% Tween-20). Compounds were provided as 200 mM stocks and diluted in running buffer to obtain the concentrations required for dose-response studies (0, 6.25, 12.5, 25, 50, 100 and 200 µM). Raw sensorgram data were analyzed using Biacore S200 Evaluation Software. Dose-response determinations were evaluated using a 1:1 binding model. KD values were determined by Biacore S200 Evaluation Software Version 1.0. assuming 1:1 binding. For compounds approaching saturation, Rmax was floated. For compounds with insufficient curvature, Rmax was fixed based on a control. Errors were determined as the standard error in the dose-response fit, as calculated by Biacore S200 Evaluation Software.
In general terms: SPR reads the build-up and loss of mass on a sensor chip optically.

Assay [1] deals with T5, His-tagged HIV-1 RT K103N (Human immunodeficiency virus type 1 group M subtype B, UniProt P03367, K702N).
T5 construct: The p66/p51 HIV-1 RT heterodimer engineered with a N-terminal histidine tag; His tag (histidine tag) (N); made in house; host or cells: Escherichia coli strain M15 (vector pRT6H-PR)
Briefly: Surface plasmon resonance, K103N RT. To be noted: ± standard error of dose–response fit, n = 1; NB = no binding observed; read-out: SPR—KD, K103N. Here is the method: as §5, §6

Assay [2] addresses T6, His-tagged HIV-1 RT Y181C (Human immunodeficiency virus type 1 group M subtype B, UniProt P03367, Y780C).
T6 construct: The p66/p51 HIV-1 RT heterodimer engineered with a N-terminal histidine tag; His tag (histidine tag) (N); made in house; host or cells: Escherichia coli strain M15 (vector pRT6H-PR)
The assay is described as follows: Surface plasmon resonance, Y181C RT. Conditions: ± standard error of dose–response fit, n = 1; NB = no binding observed; read-out: SPR—KD, Y181C. As for the experimental part: as §5
(§7) SPR assays were performed on a Biacore S200 (GE Healthcare). His-tagged RT (WT, K103N, Y181C or K103N/Y181C) was immobilized on the surface of a Biacore compatible NIHC 1500M (Xantec) chip according to manufacturer’s instructions. Following 3 injections 300 s each of 0.5 M EDTA, the chip surface was activated with a 120 s injection of 5 mM NiCl2 followed by a 2100 s injection of 130 nM RT. […] Raw sensorgram data were analyzed using Biacore S200 Evaluation Software. Dose-response determinations were evaluated using a 1:1 binding model. KD values were determined by Biacore S200 Evaluation Software Version 1.0. assuming 1:1 binding. […] Errors were determined as the standard error in the dose-response fit, as calculated by Biacore S200 Evaluation Software.

In assay [3] the target is T7, HIV-1 RT K103N/Y181C mutant (Human immunodeficiency virus type 1 group M subtype B, UniProt P03367, K702N/Y780C).
T7 construct: The p66/p51 HIV-1 RT heterodimer engineered with a N-terminal histidine tag; His tag (histidine tag) (N); made in house; host or cells: Escherichia coli strain M15 (vector pRT6H-PR)
Briefly: DDDP activity assay, K103N/Y181C RT mutant. The format is biochemical. Here is the method:
as §1, §2, §3, §4

In assay [4] the test system is HIV-1 RT K103N/Y181C mutant. Briefly: DDDP activity assay, K103N/Y181C RT mutant. The format is biochemical. To be noted: nonsignificant. As for the experimental part:
as §1, §2, §3, §4

The target of assay [5] is T8, His-tagged HIV-1 RT K103N/Y181C (Human immunodeficiency virus type 1 group M subtype B, UniProt P03367, K702N/Y780C).
T8 construct: The p66/p51 HIV-1 RT heterodimer engineered with a N-terminal histidine tag; His tag (histidine tag) (N); made in house; host or cells: Escherichia coli strain M15 (vector pRT6H-PR)
Briefly: Surface plasmon resonance, K103N/Y181C RT. The format is binding. Here is the method:
as §5, §7

The subject of assay [6] is His-tagged HIV-1 RT K103N/Y181C. The assay is described as follows: Surface plasmon resonance, K103N/Y181C RT. The format is binding. Conditions: SPR. As for the experimental part:
as §5, §7

The test system of assay [7] is HIV-1 RT (WT RT construct RT35A). To be noted: assay detects inhibition of both DNA polymerase and RNase H activity; read-out: IC50 (Bauman et al.); cited from earlier work.

SMILES strings stand for the structures. Like-named read-outs stand apart in the source and are kept apart here.

As for `CCOC(=O)c1cnn2cccc(Br)c12` [compound 6, Ethyl 4-Bromopyrazolo[1,5-a]pyridine-3-carboxylate], the IC50 on recombinant WT HIV-1 RT amounted to 159 ± 29 µM; on HIV-1 RT K103N mutant, 846 ± 42 µM; on HIV-1 RT Y181C mutant it was 850 ± 187 µM. For the same molecule, the “Ligand efficiency (LE)” value at recombinant WT HIV-1 RT is listed as 0.35 kcal/mol/HA. Further, the Kd on His-tagged HIV-1 RT WT came to 598 ± 15 µM; in assay [1] it was 1400 ± 45 µM; in assay [2] it was 1190 ± 47 µM.

On to `CCOC(=O)c1cnn2ccc(N)cc12` [compound 8, Ethyl 5-Aminopyrazolo[1,5-a]pyridine-3-carboxylate], for which the IC50 at recombinant WT HIV-1 RT is greater than 1000 µM. Moreover, the Kd was 522 ± 27 µM at His-tagged HIV-1 RT WT, 621 ± 36 µM in assay [1] and 610 ± 32 µM in assay [2].

On to `CCOC(=O)c1cnn2cccc(C#CC3CC3)c12` [compound 27, Ethyl 4-(Cyclopropylethynyl)pyrazolo[1,5-a]pyridine-3-carboxylate], for which the “fold improvement on parent compound B-1” value at recombinant WT HIV-1 RT (IC50 vs B-1 IC50 >1000 μM in the radioactive RT assay) is reported as greater than 20 fold. The IC50 was found to be 11 ± 1 µM on recombinant WT HIV-1 RT and 34 ± 8 µM in assay [3]. In addition, the “Ligand efficiency (LE)” value at recombinant WT HIV-1 RT was found to be 0.37 kcal/mol/HA. Besides, the “fold decrease in susceptibility, K103N/Y181C mutant compared to WT RT” value in [4] is on record as 3.0 fold. Also, the Kd stood at 79 ± 7 µM at His-tagged HIV-1 RT WT, 187 ± 15 µM in assay [1] and 187 ± 15 µM in assay [5]. Also, the “fold decrease in binding, K103N/Y181C double mutant vs WT” value in assay [6] is 2–3 fold.

For the molecule `CCOC(=O)c1cnn2ccccc12` [compound B-1, ethyl pyrazolo[1,5-a]pyridine-3-carboxylate, reference compound], the IC50 in assay [3] was 208 µM; in assay [7], 350 µM. For the same molecule, at His-tagged HIV-1 RT WT (read-out: SPR—KD, WT, ± standard error of dose–response fit, n = 1, NB = no binding observed), the Kd is greater than 200 µM.

Usually IC50 stands for the concentration at which inhibition is half-maximal. As usually defined, the Kd is the equilibrium constant for the complex coming apart.

The values above are taken from PMC10095864, “Targeting HIV-1 Reverse Transcriptase Using a Fragment-Based Approach” (Molecules, 2023).
